Data on two compounds can be found in patent US10781162B2 (UCL BUSINESS Ltd, priority 2016, dated 2020).

The nature of data set [1]: H2S gas detection assay (H2S gas release in PBS). The following applies: for quantity of H2S gas released under standard conditions: PBS, pH 7.4, 37° C., incubation 1 hour, FIG. 12A. The format is physicochemical. An excerpt: A, B and C denote the synthetic route of manufacture of DEA-TTM, with respect to FIG. 6.
If the sample is drawn in the latter part of the 10-second bin, the second or third reading may be the highest. A direct correlation ([…], straight line model, r^2=0.992; see FIG. 11) was observed on comparing the peak H2S value against the sum of the washout readings (decay) over time (area under curve, AUC). As the time to washout and the sum of values therein are directly proportional to the peak quantity of gas initially detected, it is appropriate to consider only the peak H2S gas level to determine the total amount of H2S gas release.
Initial testing of DEA-TTM salts A, B and C was carried out under standard conditions (dissolution in PBS, pH 7.4, incubation for 1 hour). […] Acidic conditions are shown to favour sulfide release.

The nature of data set [2]: In vitro dissolution and aqueous solubility study in distilled water. The protocol: The dissolution experiment was carried out in triplicate on both the diethyl tetrathiomolybdate salt and the ammonium tetrathiomolybdate salt.
The procedure of data set [3]: The in vitro dissolution and aqueous solubility behaviour at 25° C. was also investigated for the DEA-TTM salts synthesised by routes A, B and C as outlined in Example 1.5 above (Almac Sciences, Northern Ireland).

As to `[NH4+].[NH4+].[SH-].[SH-].[S]=[Mo]=[S]` [ATTM, ammonium tetrathiomolybdate], in data set [1] (for reference), the “thiol dependence of H2S release (increase, in words)” value is “six-fold increase”. Moreover, the “solubility in distilled water” value in data set [2] is listed as “ca. 2 mg/ml”. Besides, the dissolution time entry in data set [2] (distilled water) was “over 1 hour”. Also, in data set [3], the “solubility in water at 25° C.” value worked out at 2000 µg/mL.

For the compound `CC[NH2+]CC.CC[NH2+]CC.[S]=[Mo](=[S])([S-])[S-]` [diethylamine tetrathiomolybdate], the “quantity of H2S gas released under standard conditions” value in data set [1] (listed as salt B) is “released the least H2S gas”; in data set [1] (listed as salt C), “released the most H2S gas”.
